Patent publication US12371454B2, “Cyclic peptide compound having Kras inhibitory action” (priority 2019, dated 2025)
Positions of bridges follow the written chain, without caps; N, C: chain ends. Non-standard residues stand in square brackets, D forms with d. Residues, ends and D or L forms follow the SMILES beside them. *: point of attachment. hPhe(3-Cl-4-CF3) = N[C@@H](CCc1ccc(C(F)(F)F)c(Cl)c1)C(=O)O; hPhe(3-F,4-CF3) = N[C@@H](CCc1ccc(C(F)(F)F)c(F)c1)C(=O)O; NMePhe(4-CF3) = CN[C@@H](Cc1ccc(C(F)(F)F)cc1)C(=O)O; 3Oxa8azabicyclo(3.2.1)octane = C1CC2COCC1N2*; NEtPhe(4-Me) = CCN[C@@H](Cc1ccc(C)cc1)C(=O)O; NMePhe(4-Me) = CN[C@@H](Cc1ccc(C)cc1)C(=O)O; NMeAla(cPent) = CN[C@@H](CC1CCCC1)C(=O)O; NMeGly(cPent) = CN[C@H](C(=O)O)C1CCCC1; Gly(cPent) = N[C@H](C(=O)O)C1CCCC1; NMeCha = CN[C@@H](CC1CCCCC1)C(=O)O; NMehLeu = CN[C@@H](CCC(C)C)C(=O)O; NEtLeu = CCN[C@@H](CC(C)C)C(=O)O; NMeI = CC[C@H](C)[C@H](NC)C(=O)O; Piperidide(4-Me) = CC1CCN(*)CC1; NMeD = CN[C@@H](CC(=O)O)C(=O)O; NMeL = CN[C@@H](CC(C)C)C(=O)O; NMeV = CN[C@H](C(=O)O)C(C)C; d(β3hA) = C[C@@H](N)CC(=O)O; Azetidin(1-yl) = C1CN(*)C1; NMeS = CN[C@@H](CO)C(=O)O; Morpholide = C1CN(*)CCO1; NMeA = CN[C@@H](C)C(=O)O; Piperidide = C1CCN(*)CC1; Ac5c = NC1(C(=O)O)CCCC1; Aze = O=C(O)[C@@H]1CCN1; NEtG = CCNCC(=O)O; Sar = CNCC(=O)O; Propyl = CCC*

System: Human pancreatic cancer cell line AsPC-1
Test: Measurement of AsPC-1 cell growth inhibition (AsPC-1 CGI)
Format: cell-based
Conditions: 96 h
Method in brief: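 AsPC-1 cells in 15% FBS RPMI-1640 were exposed to test compound for 96 hours at 37° C, with CellTiter-Glo as endpoint.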

| IC50 | Structure (SMILES) |
| --- | --- |
| 100 to 500 nM | CC[C@H](C)[C@@H]1NC(=O)[C@H](CC(C)C)N(C)C(=O)C[C@@H](C)NC(=O)[C@H](C2CCCC2)NC(=O)C2(CCCC2)NC(=O)[C@@H]2CCCN2C(=O)[C@H](CCc2ccc(C(F)(F)F)c(Cl)c2)NC(=O)CN(C)C(=O)[C@H](Cc2ccc(C)cc2)N(C)C(=O)[C@@H]2CCN2C(=O)[C@H](C)N(C)C1=O [Compound 1213] (cyclo([Ac5c][Gly(cPent)][d(β3hA)][NMeL]I[NMeA][Aze][NMePhe(4-Me)][Sar][hPhe(3-Cl-4-CF3)]P)) |
| 20 to 50 nM | CC[C@H](C)[C@@H]1NC(=O)[C@H](CCC(C)C)N(C)C(=O)C[C@@H](C(=O)N2CCOCC2)N(C)C(=O)[C@H](C2CCCC2)N(C)C(=O)C2(CCCC2)NC(=O)[C@@H]2CCCN2C(=O)[C@H](CCc2ccc(C(F)(F)F)c(Cl)c2)NC(=O)CN(C)C(=O)[C@H](C2CCCC2)N(C)C(=O)[C@@H]2CCN2C(=O)[C@H](C)NC1=O [Compound 1223] ([NMehLeu]IA[Aze][NMeGly(cPent)][Sar][hPhe(3-Cl-4-CF3)]P[Ac5c][NMeGly(cPent)][NMeD]-Morpholide; lactam N-11) |
| 50 to 100 nM | CC[C@H](C)[C@@H]1NC(=O)[C@H](CC(C)C)N(CC)C(=O)C[C@@H](C(=O)N2CCOCC2)N(C)C(=O)[C@H]([C@@H](C)CC)N(C)C(=O)C2(CCCC2)NC(=O)[C@@H]2CCCN2C(=O)[C@H](CCc2ccc(C(F)(F)F)c(Cl)c2)NC(=O)CN(C)C(=O)[C@H](Cc2ccc(C(F)(F)F)cc2)N(C)C(=O)[C@@H]2CCN2C(=O)[C@H](C)NC1=O [Compound 1233] ([NEtLeu]IA[Aze][NMePhe(4-CF3)][Sar][hPhe(3-Cl-4-CF3)]P[Ac5c][NMeI][NMeD]-Morpholide; lactam N-11) |
| 100 to 500 nM | CC[C@H](C)[C@@H]1NC(=O)[C@H](CC(C)C)N(CC)C(=O)C[C@@H](C(=O)N2CCC2)N(C)C(=O)[C@H](C2CCCC2)N(C)C(=O)C2(CCCC2)NC(=O)[C@@H]2CCCN2C(=O)[C@H](CCc2ccc(C(F)(F)F)c(Cl)c2)NC(=O)CN(C)C(=O)[C@H](CC2CCCCC2)N(C)C(=O)[C@@H]2CCN2C(=O)[C@H](C)NC1=O [Compound 1262] ([NEtLeu]IA[Aze][NMeCha][Sar][hPhe(3-Cl-4-CF3)]P[Ac5c][NMeGly(cPent)][NMeD]-{Azetidin(1-yl)}; lactam N-11) |
| 100 to 500 nM | CC[C@H](C)[C@@H]1NC(=O)[C@H](CC(C)C)N(CC)C(=O)C[C@@H](C(=O)N2CCOCC2)N(C)C(=O)[C@H](C2CCCC2)N(C)C(=O)C2(CCCC2)NC(=O)[C@@H]2CCCN2C(=O)[C@H](CCc2ccc(C(F)(F)F)c(Cl)c2)NC(=O)CN(C)C(=O)[C@H](CC2CCCCC2)N(C)C(=O)[C@@H]2CCN2C(=O)[C@H](C)NC1=O [Compound 1266] ([NEtLeu]IA[Aze][NMeCha][Sar][hPhe(3-Cl-4-CF3)]P[Ac5c][NMeGly(cPent)][NMeD]-Morpholide; lactam N-11) |
| 20 to 50 nM | CC[C@H](C)[C@@H]1NC(=O)[C@H](CC(C)C)N(CC)C(=O)C[C@@H](C(=O)N(C)C)N(C)C(=O)[C@H]([C@@H](C)CC)N(C)C(=O)C2(CCCC2)NC(=O)[C@@H]2CCCN2C(=O)[C@H](CCc2ccc(C(F)(F)F)c(Cl)c2)NC(=O)CN(C)C(=O)[C@H](Cc2ccc(C)cc2)N(C)C(=O)[C@@H]2CCN2C(=O)[C@H](C)NC1=O [Compound 1287] ([NEtLeu]IA[Aze][NMePhe(4-Me)][Sar][hPhe(3-Cl-4-CF3)]P[Ac5c][NMeI][NMeD]-NMe2; lactam N-11) |
| 100 to 500 nM | CC[C@H](C)[C@@H]1NC(=O)[C@H](CC(C)C)N(C)C(=O)C[C@@H](C(=O)N2CCC(C)CC2)N(C)C(=O)[C@H](C(C)C)N(C)C(=O)C2(CCCC2)NC(=O)[C@@H]2CCCN2C(=O)[C@H](CCc2ccc(C(F)(F)F)c(Cl)c2)NC(=O)CN(C)C(=O)[C@H](CC2CCCCC2)N(C)C(=O)[C@@H]2CCN2C(=O)[C@H](C)N(C)C1=O [Compound 1291] ([NMeL]I[NMeA][Aze][NMeCha][Sar][hPhe(3-Cl-4-CF3)]P[Ac5c][NMeV][NMeD]-{Piperidide(4-Me)}; lactam N-11) |
| 20 to 50 nM | CC[C@H](C)[C@@H]1NC(=O)[C@H](CCC(C)C)N(C)C(=O)C[C@@H](C(=O)N(C)C)N(C)C(=O)[C@H](C2CCCC2)N(C)C(=O)C2(CCCC2)NC(=O)[C@@H]2CCCN2C(=O)[C@H](CCc2ccc(C(F)(F)F)c(F)c2)NC(=O)CN(C)C(=O)[C@H](CC2CCCCC2)N(C)C(=O)[C@@H]2CCN2C(=O)[C@H](C)NC1=O [Compound 1292] ([NMehLeu]IA[Aze][NMeCha][Sar][hPhe(3-F,4-CF3)]P[Ac5c][NMeGly(cPent)][NMeD]-NMe2; lactam N-11) |
| 50 to 100 nM | CC[C@H](C)[C@@H]1NC(=O)[C@H](CC(C)C)N(C)C(=O)C[C@@H](C(=O)N2CCOCC2)N(C)C(=O)[C@H](C2CCCC2)N(C)C(=O)C2(CCCC2)NC(=O)[C@@H]2CCCN2C(=O)[C@H](CCc2ccc(C(F)(F)F)c(Cl)c2)NC(=O)CN(C)C(=O)[C@H](C2CCCC2)N(C)C(=O)[C@@H]2CCN2C(=O)[C@H](C)NC1=O [Compound 1309] ([NMeL]IA[Aze][NMeGly(cPent)][Sar][hPhe(3-Cl-4-CF3)]P[Ac5c][NMeGly(cPent)][NMeD]-Morpholide; lactam N-11) |
| 50 to 100 nM | CC[C@H](C)[C@@H]1NC(=O)[C@H](CC(C)C)N(C)C(=O)C[C@@H](C)NC(=O)[C@H](C2CCCC2)N(C)C(=O)C2(CCCC2)NC(=O)[C@@H]2CCCN2C(=O)[C@H](CCc2ccc(C(F)(F)F)c(Cl)c2)NC(=O)CN(C)C(=O)[C@H](Cc2ccc(C)cc2)N(C)C(=O)[C@@H]2CCN2C(=O)[C@H](C)NC1=O [Compound 1331] (cyclo(A[Aze][NMePhe(4-Me)][Sar][hPhe(3-Cl-4-CF3)]P[Ac5c][NMeGly(cPent)][d(β3hA)][NMeL]I)) |
| 20 to 50 nM | CC[C@H](C)[C@@H]1NC(=O)[C@H](CC2CCCC2)N(C)C(=O)C[C@@H](C(=O)N(C)C)N(C)C(=O)[C@H](C2CCCC2)N(C)C(=O)C2(CCCC2)NC(=O)[C@@H]2CCCN2C(=O)[C@H](CCc2ccc(C(F)(F)F)c(F)c2)NC(=O)CN(C)C(=O)[C@H](CC2CCCCC2)N(C)C(=O)[C@@H]2CCN2C(=O)[C@H](C)NC1=O [Compound 1340] ([NMeAla(cPent)]IA[Aze][NMeCha][Sar][hPhe(3-F,4-CF3)]P[Ac5c][NMeGly(cPent)][NMeD]-NMe2; lactam N-11) |

| Structure (SMILES) | IC50 |
| --- | --- |
| CC[C@H](C)[C@@H]1NC(=O)[C@H](CC(C)C)N(C)C(=O)C[C@@H](C(=O)N2C3CCC2COC3)N(C)C(=O)[C@H](C2CCCC2)N(C)C(=O)C2(CCCC2)NC(=O)[C@@H]2CCCN2C(=O)[C@H](CCc2ccc(C(F)(F)F)c(Cl)c2)NC(=O)CN(C)C(=O)[C@H](Cc2ccc(C)cc2)N(CC)C(=O)[C@@H]2CCN2C(=O)[C@H](C)N(C)C1=O [Compound 1236] ([NMeL]I[NMeA][Aze][NEtPhe(4-Me)][Sar][hPhe(3-Cl-4-CF3)]P[Ac5c][NMeGly(cPent)][NMeD]-{3Oxa8azabicyclo(3.2.1)octane}; lactam N-11) | 20 to 50 nM |
| CCCOC[C@H]1C(=O)N(C)CC(=O)N[C@@H](CCc2ccc(C(F)(F)F)c(Cl)c2)C(=O)N2CCC[C@H]2C(=O)NC2(CCCC2)C(=O)N(C)[C@@H](C2CCCC2)C(=O)N(C)[C@H](C(=O)N2C3CCC2COC3)CC(=O)N(C)[C@@H](CC2CCCC2)C(=O)N[C@@H]([C@@H](C)CC)C(=O)N(C)[C@@H](C)C(=O)N2CC[C@H]2C(=O)N1C [Compound 1251] ([NMeAla(cPent)]I[NMeA][Aze][NMeS](Propyl)[Sar][hPhe(3-Cl-4-CF3)]P[Ac5c][NMeGly(cPent)][NMeD]-{3Oxa8azabicyclo(3.2.1)octane}; lactam N-11) | 20 to 50 nM |
| CCCOC[C@H]1C(=O)N(C)CC(=O)N[C@@H](CCc2ccc(C(F)(F)F)c(Cl)c2)C(=O)N2CCC[C@H]2C(=O)NC2(CCCC2)C(=O)N(C)[C@@H](C2CCCC2)C(=O)N(C)[C@H](C(=O)N2C3CCC2COC3)CC(=O)N(C)[C@@H](CC(C)C)C(=O)N[C@@H]([C@@H](C)CC)C(=O)N[C@@H](C)C(=O)N2CC[C@H]2C(=O)N1C [Compound 1299] ([NMeL]IA[Aze][NMeS](Propyl)[Sar][hPhe(3-Cl-4-CF3)]P[Ac5c][NMeGly(cPent)][NMeD]-{3Oxa8azabicyclo(3.2.1)octane}; lactam N-11) | 20 to 50 nM |
| CCCOC[C@H]1C(=O)N(C)CC(=O)N[C@@H](CCc2ccc(C(F)(F)F)c(Cl)c2)C(=O)N2CCC[C@H]2C(=O)NC2(CCCC2)C(=O)N(C)[C@@H](C2CCCC2)C(=O)N(C)[C@H](C(=O)N2C3CCC2COC3)CC(=O)N(C)[C@@H](CCC(C)C)C(=O)N[C@@H]([C@@H](C)CC)C(=O)N[C@@H](C)C(=O)N2CC[C@H]2C(=O)N1C [Compound 1326] ([NMehLeu]IA[Aze][NMeS](Propyl)[Sar][hPhe(3-Cl-4-CF3)]P[Ac5c][NMeGly(cPent)][NMeD]-{3Oxa8azabicyclo(3.2.1)octane}; lactam N-11) | 20 to 50 nM |
| CC[C@H](C)[C@@H]1NC(=O)[C@H](CC(C)C)N(C)C(=O)C[C@@H](C(=O)N2CCCCC2)N(C)C(=O)[C@H](C(C)C)N(C)C(=O)C2(CCCC2)NC(=O)[C@@H]2CCCN2C(=O)[C@H](CCc2ccc(C(F)(F)F)c(Cl)c2)NC(=O)CN(C)C(=O)[C@H](CC2CCCCC2)N(C)C(=O)[C@@H]2CCN2C(=O)[C@H](C)NC1=O [Compound 1334] ([NMeL]IA[Aze][NMeCha][Sar][hPhe(3-Cl-4-CF3)]P[Ac5c][NMeV][NMeD]-Piperidide; lactam N-11) | 100 to 500 nM |
| CCCOC[C@H]1C(=O)N(CC)CC(=O)N[C@@H](CCc2ccc(C(F)(F)F)c(Cl)c2)C(=O)N2CCC[C@H]2C(=O)NC2(CCCC2)C(=O)N(C)[C@@H](C2CCCC2)C(=O)N(C)[C@H](C(=O)N2C3CCC2COC3)CC(=O)N(C)[C@@H](CC(C)C)C(=O)N[C@@H]([C@@H](C)CC)C(=O)N(C)[C@@H](C)C(=O)N2CC[C@H]2C(=O)N1C [Compound 1338] ([NMeL]I[NMeA][Aze][NMeS](Propyl)[NEtG][hPhe(3-Cl-4-CF3)]P[Ac5c][NMeGly(cPent)][NMeD]-{3Oxa8azabicyclo(3.2.1)octane}; lactam N-11) | 50 to 100 nM |
| CC[C@H](C)[C@@H]1NC(=O)[C@H](CC(C)C)N(C)C(=O)C[C@@H](C(=O)N2CCCCC2)NC(=O)[C@H](C(C)C)N(C)C(=O)C2(CCCC2)NC(=O)[C@@H]2CCCN2C(=O)[C@H](CCc2ccc(C(F)(F)F)c(Cl)c2)NC(=O)CN(C)C(=O)[C@H](CC2CCCCC2)N(C)C(=O)[C@@H]2CCN2C(=O)[C@H](C)N(C)C1=O [Compound 1353] ([NMeL]I[NMeA][Aze][NMeCha][Sar][hPhe(3-Cl-4-CF3)]P[Ac5c][NMeV]D-Piperidide; lactam N-11) | 100 to 500 nM |
